Measured values taken from PubChem BioAssay AID248 (DTP/NCI, 2004).
Inconclusive results and toxic doses are left out.

System: L1210 leukemia ip in BDF1 mice, survival T/C
Assay: NCI In Vivo Anticancer Drug Screen. Data for tumor model L1210 Leukemia (intraperitoneal) in B6D2F1 (BDF1) mice
Conditions: endpoint: mean survival time, higher = longer survival
Summary of the method: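 Each compound was tested against a transplantable tumor grown in mice. The endpoint was survival, with treated animals benchmarked against vehicle controls as a simple ratio.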

[1] = dose: 100.0 mg/kg/injection, schedule: Q01DX009 (ip), vehicle: saline with Tween-80
[2] = dose: 400.0 mg/kg/injection, schedule: Q01DX009 (ip), vehicle: saline with Tween-80
[3] = dose: 50.0 mg/kg/injection, schedule: Q01DX001 (ip), vehicle: saline
[4] = dose: 100.0 mg/kg/injection, schedule: Q01DX001 (ip), vehicle: saline
[5] = dose: 200.0 mg/kg/injection, schedule: Q01DX001 (ip), vehicle: saline
[6] = dose: 100.0 mg/kg/injection, schedule: Q01DX001 (ip), vehicle: Klucel (hydroxypropylcellulose) (HPC)
[7] = dose: 200.0 mg/kg/injection, schedule: Q01DX001 (ip), vehicle: Klucel (hydroxypropylcellulose) (HPC)
[8] = dose: 400.0 mg/kg/injection, schedule: Q01DX001 (ip), vehicle: Klucel (hydroxypropylcellulose) (HPC)
[9] = dose: 50.0 mg/kg/injection, schedule: Q01DX009 (ip), vehicle: Klucel (hydroxypropylcellulose) (HPC)
[10] = dose: 100.0 mg/kg/injection, schedule: Q01DX009 (ip), vehicle: Klucel (hydroxypropylcellulose) (HPC)
[11] = dose: 200.0 mg/kg/injection, schedule: Q01DX009 (ip), vehicle: Klucel (hydroxypropylcellulose) (HPC)
[12] = dose: 100.0 mg/kg/injection, schedule: Q04DX002 (ip), vehicle: Klucel (hydroxypropylcellulose) (HPC)
[13] = dose: 200.0 mg/kg/injection, schedule: Q04DX002 (ip), vehicle: Klucel (hydroxypropylcellulose) (HPC)
[14] = dose: 400.0 mg/kg/injection, schedule: Q04DX002 (ip), vehicle: Klucel (hydroxypropylcellulose) (HPC)

SMILES: IP(c1ccccc1)(c1ccccc1)(c1ccccc1)N1C2CCCCC21 (centres undefined)
- T/C (dose: 0.15 mg/kg/injection, schedule: Q01DX009 (ip), vehicle: acetone): 107 % of control
- T/C (dose: 0.31 mg/kg/injection, schedule: Q01DX009 (ip), vehicle: acetone): 115 % of control
- T/C (dose: 0.62 mg/kg/injection, schedule: Q01DX009 (ip), vehicle: acetone): 115 % of control
- T/C (dose: 0.62 mg/kg/injection, schedule: Q01DX009 (ip), vehicle: saline): 112 % of control
- T/C (dose: 0.62 mg/kg/injection, schedule: Q04DX003 (ip), vehicle: saline): 113 % of control
- T/C (dose: 1.2 mg/kg/injection, schedule: Q01DX001 (ip), vehicle: acetone): 114 % of control
- T/C (dose: 1.25 mg/kg/injection, schedule: Q01DX009 (ip), vehicle: saline): 104 % of control
- T/C (dose: 1.25 mg/kg/injection, schedule: Q04DX003 (ip), vehicle: saline): 93 % of control
- T/C (dose: 2.5 mg/kg/injection, schedule: Q01DX001 (ip), vehicle: acetone): 119 % of control
- T/C (dose: 2.5 mg/kg/injection, schedule: Q01DX009 (ip), vehicle: saline): 114 % of control

SMILES: O=C1NC(=O)C2C3C=CC(C12)C1C2C(=O)NC(=O)C2C31 (centres undefined)
- T/C (dose: 12.5 mg/kg/injection, schedule: Q01DX009 (ip), vehicle: saline with Tween-80): 102 % of control
- T/C (dose: 25.0 mg/kg/injection, schedule: Q01DX009 (ip), vehicle: saline with Tween-80): 95 % of control
- T/C (dose: 50.0 mg/kg/injection, schedule: Q01DX009 (ip), vehicle: saline with Tween-80): 111 % of control
- T/C [1]: 178 % of control
- T/C [2]: 90 % of control

SMILES: O=C(O)C12C3(Cl)C4(Cl)C5(OCCO5)C5(Cl)C3(Cl)C1(Cl)C5(Cl)C42Cl (centres undefined)
- T/C [3]: 105 % of control
- T/C [4]: 102 % of control
- T/C [5]: 100 % of control

SMILES: CO[N+](=O)c1cc(C(C)(C)C)c([O-])c(C(C)(C)C)c1
- T/C [6]: 88 % of control
- T/C [7]: 88 % of control
- T/C [8]: 92 % of control

SMILES: CCN(CC)CC(C)(C)/C=N/N=C(N)N
- T/C (dose: 15.0 mg/kg/injection, schedule: Q01DX Z (ip), vehicle: saline): 98 % of control
- T/C (dose: 30.0 mg/kg/injection, schedule: Q01DX Z (ip), vehicle: saline): 91 % of control
- T/C (dose: 60.0 mg/kg/injection, schedule: Q01DX Z (ip), vehicle: saline): 105 % of control

SMILES: O=C(Oc1ccc2ccc(=O)oc2c1)N(CCCl)CCCl
- T/C [9]: 97 % of control
- T/C [10]: 90 % of control
- T/C [11]: 101 % of control

SMILES: O=C(COc1ccc(Cl)cc1Cl)OCCOc1ccc(Cl)cc1
- T/C [12]: 97 % of control
- T/C [13]: 97 % of control
- T/C [14]: 118 % of control

SMILES: CC1CC(C)(C)N=C(CCC2CCCC23OCCO3)O1 (centres undefined)
- T/C (dose: 100.0 mg/kg/injection, schedule: Q01DX009 (ip), vehicle: saline sonified): 98 % of control
- T/C (dose: 100.0 mg/kg/injection, schedule: Q04DX003 (ip), vehicle: saline sonified): 101 % of control
- T/C (dose: 200.0 mg/kg/injection, schedule: Q01DX009 (ip), vehicle: saline sonified): 98 % of control
- T/C (dose: 200.0 mg/kg/injection, schedule: Q04DX003 (ip), vehicle: saline sonified): 101 % of control
- T/C (dose: 400.0 mg/kg/injection, schedule: Q01DX009 (ip), vehicle: saline sonified): 94 % of control
- T/C (dose: 400.0 mg/kg/injection, schedule: Q04DX003 (ip), vehicle: saline sonified): 101 % of control

SMILES: CC(CC(=O)NC(N)=O)(NC(N)=O)NC(N)=O
- T/C [6]: 100 % of control
- T/C [7]: 101 % of control
- T/C [8]: 95 % of control

SMILES: CC(C)CCC1(CCBr)C(=O)NC(=Nc2ccccc2)NC1=O (centres undefined)
- T/C (dose: 100.0 mg/kg/injection, schedule: Q01DX001 (ip), vehicle: carboxymethylcellulose (CMC)): 96 % of control
- T/C (dose: 200.0 mg/kg/injection, schedule: Q01DX001 (ip), vehicle: carboxymethylcellulose (CMC)): 102 % of control
- T/C (dose: 400.0 mg/kg/injection, schedule: Q01DX001 (ip), vehicle: carboxymethylcellulose (CMC)): 94 % of control

SMILES: COc1ccc(/C=N/NC(=O)c2ccccc2N)cc1
- T/C [12]: 98 % of control
- T/C [13]: 106 % of control
- T/C [14]: 106 % of control

SMILES: COC1OC(COC(c2ccccc2)(c2ccccc2)c2ccccc2)C(O)C(O)C1O (centres undefined)
- T/C [9]: 89 % of control
- T/C [10]: 93 % of control
- T/C [11]: 89 % of control

SMILES: CC1CCC(C(C)C)=C(C2CCCCC2)C1 (centres undefined)
- T/C (dose: 100.0 mg/kg/injection, schedule: Q04DX003 (ip), vehicle: saline): 98 % of control
- T/C (dose: 200.0 mg/kg/injection, schedule: Q04DX003 (ip), vehicle: saline): 104 % of control
- T/C (dose: 400.0 mg/kg/injection, schedule: Q04DX003 (ip), vehicle: saline): 87 % of control

SMILES: O=P(O)(O)CN(CP(=O)(O)O)CP(=O)(O)O
- T/C [4]: 101 % of control
- T/C [5]: 94 % of control
- T/C (dose: 400.0 mg/kg/injection, schedule: Q01DX001 (ip), vehicle: saline): 89 % of control

SMILES: Cc1cccc(CSc2nc(N)nc3c2ncn3C2CC(O)C(CO)O2)n1 (centres undefined)
- T/C (dose: 100.0 mg/kg/injection, schedule: Q01DX005 (ip), vehicle: saline): 104 % of control
- T/C (dose: 100.0 mg/kg/injection, schedule: Q01DX009 (ip), vehicle: saline): 113 % of control
- T/C (dose: 200.0 mg/kg/injection, schedule: Q01DX005 (ip), vehicle: saline): 107 % of control
- T/C (dose: 600.0 mg/kg/injection, schedule: Q01DX009 (ip), vehicle: saline): 153 % of control

SMILES: CCP(=O)(CC)CC
- T/C (dose: 1000.0 mg/kg/injection, schedule: Q01DX Z (ip), vehicle: saline): 104 % of control
- T/C (dose: 2000.0 mg/kg/injection, schedule: Q01DX Z (ip), vehicle: saline): 101 % of control

SMILES: O=c1cc[nH]c2ccc(Cl)cc12
- T/C [3]: 117 % of control
- T/C [4]: 102 % of control

SMILES: COC1OC(COC(=O)c2ccccc2)C(OC(=O)c2ccccc2)C(OC(=O)c2ccccc2)C1OC(=O)c1ccccc1 (centres undefined)
- T/C [1]: 116 % of control
- T/C (dose: 200.0 mg/kg/injection, schedule: Q01DX009 (ip), vehicle: saline with Tween-80): 107 % of control
- T/C [2]: 107 % of control

SMILES: CCCCNC(=O)Nc1ccccc1CC
- T/C [10]: 93 % of control
- T/C (dose: 100.0 mg/kg/injection, schedule: Q04DX003 (ip), vehicle: Klucel (hydroxypropylcellulose) (HPC)): 95 % of control
- T/C [11]: 96 % of control
- T/C (dose: 200.0 mg/kg/injection, schedule: Q04DX003 (ip), vehicle: Klucel (hydroxypropylcellulose) (HPC)): 106 % of control
- T/C (dose: 400.0 mg/kg/injection, schedule: Q01DX009 (ip), vehicle: Klucel (hydroxypropylcellulose) (HPC)): 93 % of control
- T/C (dose: 400.0 mg/kg/injection, schedule: Q04DX003 (ip), vehicle: Klucel (hydroxypropylcellulose) (HPC)): 97 % of control

SMILES: CCCCOCCOCCOC(C)Oc1ccc(C(=O)OC)cc1 (centres undefined)
- T/C (dose: 100.0 mg/kg/injection, schedule: Q04DX002 (ip), vehicle: saline): 92 % of control
- T/C (dose: 200.0 mg/kg/injection, schedule: Q04DX002 (ip), vehicle: saline): 99 % of control
- T/C (dose: 400.0 mg/kg/injection, schedule: Q04DX002 (ip), vehicle: saline): 101 % of control

SMILES: CC(N)c1ccccc1 (centres undefined)
- T/C (dose: 100.0 mg/kg/injection, schedule: Q01DX001 (ip), vehicle: saline with Tween-80): 95 % of control
- T/C (dose: 200.0 mg/kg/injection, schedule: Q01DX001 (ip), vehicle: saline with Tween-80): 90 % of control

SMILES: O=C1OCC/C1=C/OCCCCO/C=C1/CCOC1=O
- T/C [12]: 97 % of control
- T/C [13]: 97 % of control
- T/C [14]: 94 % of control
